Data taken from patent US10576086B2, “Triazine derivatives as interferon-gamma inhibitors” (University of Greenwich, priority 2015, dated 2020).
Read-outs that look alike come from different tables or passages of the source.

Legend:
[1] = system: IFN-γ production in human peripheral blood mononuclear cells (PBMCs); assay: Experiment 2: IFN-γ production by PHA-stimulated human PBMCs, ELISA; assay type: cell-based; conditions: for [IFN-γ]: PHA 5 μg/ml; for inhibition of IFN-γ production in PBMCs (in words): Experiment 2, human PBMCs; for IC50: human PBMCs, PHA-stimulated, read-out: IC50 (concentration to inhibit IFN-γ production by 50%)
Protocol: A similar set of tests were carried out, in which three compounds known as CEN-079(3,5-diamino-6-[2-(3,4,5-trichlorothienyl)]-1,2,4-triazine), CEN-092(3,5-diamino-6-(3,5-bistrifluoromethylphenyl)-1,2,4-triazine) and CEN-216(3,5-diamino-6-(2,3-dichlorophenyl)-2,3(2,5)-dihydro-3(5)-imino-2-(2,2,2-trichloroethyl)-1,2,4-triazine) were compared with lamotrigine. CEN-079, CEN-092 and CEN-216 are within the scope of Formulae 1, 2 and 3.
50 ml of blood from three healthy adult donors was collected by venepuncture in heparinised tubes. The blood samples where centrifuged at 3000 rpm for 15 minutes. The supernatant plasma was collected in a centrifuge tube, and centrifuged at 3000 rpm for a further 10 minutes. The supernatant was then collected in a plain tube, and stored at −70° C. for future use.
The cells from the first centrifuged heparinised tube were diluted 1:1 in RPMI-1640, and mixed by multiple inversions. The cell mixture was then slowly layered, using a sterile plastic 3 ml pipette, along a tube wall containing lymphoprep (Nycomed) at a ratio of 2:1 cells/RPMI-1640:Lymphoprep in a 25 ml universal tube. The mixture was centrifuged at 2400 rpm for 30 minutes, and left to stand for 20 minutes. PBMCs were slowly removed from the interface using a sterile plastic pipette, and collected in a 15 ml centrifuge tube.
The cells were washed twice by diluting in RPMI-1640 with 2 mM L-glutamine, 100 U/ml penicillin and 100 μg/ml streptomycin at a ratio of 1:1. The mixture was centrifuged at 3000 rpm for 15 minutes, and the supernatant decanted. PBMCs were then diluted in RPMI-1640 containing 2 mM L-glutamine, 100 U/ml penicillin and 100 μg streptomycin, to make up a volume of 6 ml for subjects 1 and 2, and 9 ml for subject 3.
Cells were counted using an Improved Neubauer haemocytometer (Hawksley, UK) on a light microscope. 10 μl of cell suspension was loaded onto the haemocytometer using a sterile plastic pipette. Cells were counted in five out of 25 1 mm squares, from which the total cell count was calculated.
5 μg/ml PHA was used as a T cell activating agent for the production of IFN-γ. The PBMCs were treated with the four test compounds (lamotrigine, CEN-079, CEN-092, CEN-216) at concentrations of 10 μM, 30 μM and 300 μM to assess their effects on IFN-γ production by the stimulated T cells.
The tests were carried out as for Experiment 1, in which 2×10^6 PBMC/ml, 25 μl of 5% autologous plasma, and 2.63 μl of 5 μg/ml PHA were used. Test compound at each concentration was then added, except for one control case.
10 μM solutions were obtained by adding 1.05 μl of a 5 mM solution of the compounds to the above PBMC-containing solution. 30 μM solutions were obtained by adding 3.15 μl of the 5 mM solution of the compounds. 300 μM solutions were obtained by adding […] solutions of the compounds.
The tubes were covered, gently shaken to mix the contents, and incubated for 24 hours at 37° C. The tubes were then centrifuged at 2500 rpm for 10 minutes. The supernatant was collected in a 3 ml plastic pipette, and aliquots were stored at −70° C. before being analysed.
The test was performed according to the supplier's instructions. Donor samples were diluted 1:1 in phosphate buffered […] (PBS) and assayed simultaneously with IFN-γ standard samples, in duplicate. The standard curve ranged from 15.6 pg/ml to 1000 pg/ml.
A 96-well multiwell microplate (high binding Costar) was prepared, by diluting a capture antibody (720 μg/ml of mouse anti-human IFN-γ) in PBS to a working concentration of 4.0 μg/ml. 100 μl was immediately coated on each well, and left overnight at room temperature. The wells were washed three times in wash buffer, using microplate autowasher (LT-3000, LabTech International Ltd). The remainder of the wash buffer in the wells was removed by blotting on to clean paper towels. The plate was blocked by adding 300 μl Block buffer (1% BSA in PBS) to each well and incubated at room temperature for 1 hour. […]

[2] = system: IFN-γ production in human peripheral blood mononuclear cells (PBMCs); assay: Experiment 1: IFN-γ production by PHA-stimulated human PBMCs, ELISA; assay type: cell-based; conditions: for IFN-γ Concentration, Mean: mean of first three subjects, 24 h
Protocol: The ex vivo activity of various compounds towards suppression of IFN-γ production in human peripheral blood mononuclear cells (PBMCs) was studied.
[…] They were not taking any other prescribed medication that could interfere with the results.
The blood was transferred into 50 ml centrifuge tubes (Corning, USA) containing heparin sodium salt 37.5 mg heparin powder diluted in 300-500 μl phosphate buffered saline (PBS) for 50 ml blood), and centrifuged at 2000 rpm for 10 minutes, and the plasma portion was separated. The plasma was further centrifuged at 3000 rpm for 10 minutes, and the supernatant separated and kept for later use.
The blood cells from the initial centrifugation were diluted with an equal volume of RPMI-1640 (Sigma, UK), and layered (2:1) onto Lymphoprep (Axis-Shield, Norway) in 25 ml universal tubes (Bibby Sterilin, UK) for density gradient centrifugation at 2500 rpm for 30 minutes.
PBMCs (lymphocytes and monocytes) were then removed from the interface, diluted in an equal volume of RPMI-1640 and washed twice by centrifugation at 3000 rpm for 10 minutes.
For testing, the PBMCs were re-suspended in a known volume of culture medium containing RPMI-1640 supplemented with 2 mM L-glutamine, 100 U penicillin, and 100 μg streptomycin (Sigma, UK).
The cell count was determined by the use of a haemocytometer using 10 μl of the cell suspension. The number of cells was determined based on a count in 5 random 1 mm squares.
The cell solution was then diluted with the supplemented RPMI-1640 medium to ensure a cell count of 2×10^6 cells/ml.
The PBMC suspension was added to tissue culture tubes (Bibby Sterilin, UK) with 5% autologous plasma, 5 μg/mlphytohaemaglutinin (PHA) to stimulate T-lymphocyte IFN-γ production, and a solution containing various concentrations of the compound to be studied. A control containing no compound was also cultured for each subject.
In the case of lamotrigine, the isethionate salt was used, and diluted with RPMI-1640 to produce 100 μM, 30 μM, 10 μM and 3 μM solutions that were tested on PBMCs from the first three subjects. With PBMC's from the other two subjects, a 300 μM solution was also tested.
For sipatrigine, the mesylate salt was used, and diluted with RPMI-1640 to produce 30 μM, 10 μM, 3 μM and 1 μM solutions. It was tested on PBMCs from the first three subjects only.
The tubes were incubated at 37° C. for 24 hours under a 5% CO2 atmosphere. After incubation, the cells (>75% viable according to trypan blue test) were centrifuged at 3000 prm for 10 minutes, and the cell-free supernatants were collected and stored at −70° C. before analysis for IFN-γ.
Levels of IFN-γ produced by the PBMCs were determined by the DuoSet ELISA Development system for human IFN-γ (RD Systems, UK), with a sensitivity of 15.6-1000 pg/ml.
Capture antibody, detection antibody, standard and streptavidin-HRP (streptavidin conjugated to horseradish peroxidase) were provided. A 96-well microtitre plate (Corning CoStar, flat bottom, polystyrene, high binding microtitre plate, UK) was coated with 100 μl per well of capture antibody (mouse anti-human IFN-γ at 4.0 μg/ml), sealed and incubated overnight. Unbound capture antibody was washed from the wells three times, using a wash buffer (0.05% Tween 20 in PBS). Block buffer (1% bovine serum albumin (BSA) in PBS) was then added. After incubation for 1 hour, the wells were washed, and sample culture supernatants or standards were added. A 7-point standard curve (in the range 15.6-1000 pg/ml) was produced from […] recombinant human IFN-γ using 2-fold serial dilutions in reagent diluent (0.1% BSA, 0.05% Tween 20 in tris-buffered saline (20 mM Trizma base, 150 mM NaCl)). The sealed plates were left to incubate for 2 hours.
After further washing, the detection antibody (biotinylated goat anti-human IFN-γ at 175 ng/ml) was added, and the plates sealed and incubated for a further 2 hours. […]

Structure (SMILES)	[IFN-γ] vs control ([1]; 10 μM, Subject 1, 24 h) [%]	[IFN-γ] ([1]; 10 μM, Subject 1, 24 h) [pg/mL]	[IFN-γ] vs control ([1]; 10 μM, Subject 2, 24 h) [%]	[IFN-γ] ([1]; 10 μM, Subject 2, 24 h) [pg/mL]	[IFN-γ] vs control ([1]; 10 μM, Subject 3, 24 h) [%]	[IFN-γ] ([1]; 10 μM, Subject 3, 24 h) [pg/mL]	[IFN-γ] vs control ([1]; 30 μM, Subject 1, 24 h) [%]	[IFN-γ] ([1]; 30 μM, Subject 1, 24 h) [pg/mL]	[IFN-γ] vs control ([1]; 30 μM, Subject 2, 24 h) [%]	[IFN-γ] ([1]; 30 μM, Subject 2, 24 h) [pg/mL]	[IFN-γ] vs control ([1]; 30 μM, Subject 3, 24 h) [%]	[IFN-γ] ([1]; 30 μM, Subject 3, 24 h) [pg/mL]	[IFN-γ] vs control ([1]; 300 μM, Subject 1, 24 h) [%]	[IFN-γ] ([1]; 300 μM, Subject 1, 24 h) [pg/mL]	[IFN-γ] vs control ([1]; 300 μM, Subject 2, 24 h) [%]	[IFN-γ] ([1]; 300 μM, Subject 2, 24 h) [pg/mL]	[IFN-γ] vs control ([1]; 300 μM, Subject 3, 24 h) [%]	[IFN-γ] ([1]; 300 μM, Subject 3, 24 h) [pg/mL]	inhibition of IFN-γ production in PBMCs (in words) [1]	further results
Nc1nnc(-c2sc(Cl)c(Cl)c2Cl)c(N)n1 [CEN-079, 3,5-diamino-6-[2-(3,4,5-trichlorothienyl)]-1,2,4-triazine]	22.1	154.5	36.9	757.5	28.7	611.5	7.60	53	1.80	178.5	2.0	41.5	0.0	0.00	0.0	0.0	0.0	0.0	significantly more effective inhibitors compared to lamotrigine	IC50 [1]: 6 µM
Nc1nnc(-c2cc(C(F)(F)F)cc(C(F)(F)F)c2)c(N)n1 [CEN-092, 3,5-diamino-6-(3,5-bistrifluoromethylphenyl)-1,2,4-triazine]	16.1	112.5	36.0	728.5	19.9	423.5	7.4	52.0	24.6	499.0	4.3	91.5	0.0	0.00	0.0	0.0	6.9	146.0	significantly more effective inhibitors compared to lamotrigine	IC50 ([1]; PBMC): 3 µM
N=c1nc(N)c(-c2cccc(Cl)c2Cl)nn1CC(Cl)(Cl)Cl [CEN-216, 5(3)-Amino-6-(2,3-dichlorophenyl)-2,3(2,5)-dihydro-3(5)-imino-2-(2,2,2-trichloroethyl)-1,2,4-triazine]	0.0	0.00	9.2	187.0	3.9	82.0	0.0	0.00	2.9	59.0	5.7	122.0	0.0	0.00	0.0	0.0	0.0	0.0	significantly more effective inhibitors compared to lamotrigine	
CN1CCN(c2ncc(-c3cc(Cl)cc(Cl)c3Cl)c(N)n2)CC1 [Sipatrigine, 4-amino-2-(4-methyl-1-piperazinyl)-(2,3,5-trichlorophenyl)-pyrimidine]																				IFN-γ Concentration, Mean ([2]; 1 μM): 1275.07 pg/mL; IFN-γ Concentration, Mean ([2]; 3 μM): 1227.27 pg/mL; IFN-γ Concentration, Mean ([2]; 10 μM): 1331.70 pg/mL; IFN-γ Concentration, Mean ([2]; 30 μM): 892.89 pg/mL; inhibition of IFN-γ production (in words) ([2]; Experiment 1, human PBMCs): did not inhibit IFN-γ production
